Test results as given in US11974989B2, “Therapeutic uses of glucokinase activators in combination with insulin or insulin analogs” (vTv Therapeutics LLC, priority 2018, dated 2024).
Values joined by “and” are separate entries in the source; they are usually repeats but may differ in a detail not shown here. Equal entries are not always repeated.

Columns and labels:
Type in all cases: in vivo, human
[1] = tested on: adult patients with type 1 diabetes (T1DM); assay: Open-label weekly dose escalation study: CGM blood glucose time in range; settings: for median value of the percentage of time blood glucose levels were in the range of 70-180 mg/dL: median over subjects (FIG. 1), baseline 52.0%; for median value of the percentage of time blood glucose levels were greater than 180 mg/dL (hyperglycemia): median over subjects (FIG. 4), baseline 37%; for Percentage of time (using CGM) blood glucose level is in range of 70-180 mg/dL / Percentage of time (using CGM) blood glucose level is above 180 mg/dL / Percentage of time (using CGM) blood glucose level is below 54 mg/dL / Percentage of time (using CGM) blood glucose level is between 54 and 70 mg/dL: median of days 3-6, one per subject 1-5
Experimental: (§1) An open-label, weekly dose escalation study with up to 3 dose escalations was conducted. Five adult patients with type 1 diabetes (T1DM) who were using a continuous glucose monitoring (CGM) device and insulin delivered by continuous subcutaneous insulin infusion (CSII) were dosed with a once daily with a dose of 400, 800 or 1200 mg of {2-[3-cyclohexyl-3-(trans-4-propoxy-cyclohexyl)-ureido]-thiazol-5-ylsulfanyl}-acetic acid (UT-1) for seven days at each dose level.
(§2) The initial 7 days (days −7 to −1) of the study were used to obtain baseline laboratory samples and to record baseline insulin doses and blood glucose levels during a patient's usual insulin, dietary, and activity regimen. The once daily treatment dose of UT-1 was administered morning meal. Safety labs were collected on days −7, 1, 8, 15, 21 and 28. Insulin pump data and CGM data for each dosing period was collected on days 1, 8, 15, 21, and 28. Insulin was adjusted by a patient as required to maintain glycemic control. Data from day 3 to day 6 of each dosing period or baseline period was used in the analysis of the data.

[2] = tested on: adult patients with type 1 diabetes (T1DM); assay: Open-label weekly dose escalation study: insulin pump data (bolus and basal insulin dose); settings: for mean value of bolus insulin dose per day: over subjects (FIG. 5), baseline 27.1 mean U/day; for Mean units of basal insulin units administered per day / Mean units of bolus insulin units administered per day: mean of days 3-6, one per subject 1-5
Experimental: as §1, §2

[3] = tested on: adult patients with type 1 diabetes (T1DM); assay: Open-label weekly dose escalation study: safety labs; settings: 400, 800, 1200 mg once daily, 7 days each
Experimental: as §1, §2

[4] = Open-label weekly dose escalation study: pharmacokinetic data; settings: 1200 mg group compared to the 800 mg group
Experimental: as §1, §2

adult patients with T1DM [5] = assay: Multi-center double-blind placebo-controlled 12-week study, adjunct to insulin: HbA1c, responder analysis, ketones, insulin usage
Experimental: (§3) A multi-center double-blind placebo-controlled study with a 2-week single-blind placebo run-in period to evaluate UT-1 as a potential adjunctive treatment to insulin therapy for T1DM was conducted. The study examined the response in 20 adult patients with T1DM who were using a continuous glucose monitoring (CGM) device and insulin delivered by continuous subcutaneous insulin infusion (CSII) dosed once daily with either placebo or 800 mg UT-1 for up to 12 weeks. The once daily treatment was administered with the morning meal. Safety and assessments labs were collected prior to the placebo-run in period, at Day 1 prior to dosing with blinded study medication, at weeks 2, 4, 6, 8, 12 and at approximately week 13. Insulin pump data and CGM data was collected from the single-blind placebo run-in period to the end of dosing. A quality of life and treatment satisfaction questionnaires were also used. Insulin was adjusted by patients as required to maintain glycemic control.
Patients in this study received insulin adjustments to optimize glucose levels. […] Of all study patients, there was a greater proportion of responders in the group treated with UT-1 (75%) than in the placebo group (9%) (p=0.006).

adult patients with T1DM [6] = assay: Multi-center double-blind placebo-controlled 12-week study: safety and tolerability; settings: 800 mg once daily up to 12 weeks
Experimental: as §3

For CCCO[C@H]1CC[C@H](N(C(=O)Nc2ncc(SCC(=O)O)s2)C2CCCCC2)CC1 [UT-1, {2-[3-cyclohexyl-3-(trans-4-propoxy-cyclohexyl)-ureido]-thiazol-5-ylsulfanyl}-acetic acid], the “median value of the percentage of time blood glucose levels were in the range of 70-180 mg/dL” value ([1]; 400 mg dose) was 67.9%, the “median value of the percentage of time blood glucose levels were greater than 180 mg/dL (hyperglycemia)” value ([1]; 400 mg dose) was 30.92% and the “median value of the percentage of time blood glucose levels were in the range of 70-180 mg/dL” value ([1]; 800 mg dose) was 75.7%. The “median value of the percentage of time blood glucose levels were greater than 180 mg/dL (hyperglycemia)” value ([1]; 800 mg dose) was 20.46%, the “Percentage of time (using CGM) blood glucose level is in range of 70-180 mg/dL” value (“Percentage of time … in range of 70-180 mg/dL” for short) ([1]; UT-1 400 mg once daily for 7 days with CSII insulin) was 69.3% and 56.3% and 69.6% and 67.9% and 56.8% and the “Percentage of time (using CGM) blood glucose level is above 180 mg/dL” value ([1]; UT-1 400 mg once daily) was 20.91% and 42.54% and 22.49% and 30.92% and 36.99%. For the same molecule, the “Percentage of time (using CGM) blood glucose level is below 54 mg/dL” value ([1]; UT-1 400 mg once daily) was 0% (3×) and 2.42% and 1.88%, the “Percentage of time (using CGM) blood glucose level is between 54 and 70 mg/dL” value ([1]; UT-1 400 mg once daily) was 4.2% and 0.86% and 5.54% and 0.54% and 4.97% and the “Percentage of time … in range of 70-180 mg/dL” value ([1]; UT-1 800 mg once daily for 7 days with CSII insulin) was 44.3% and 65.4% and 85.9% and 82.7% and 75.7%. The “Percentage of time (using CGM) blood glucose level is above 180 mg/dL” value ([1]; UT-1 800 mg once daily) was 50.66% and 34.56% and 14.07% and 16.82% and 20.46%, the “Percentage of time (using CGM) blood glucose level is below 54 mg/dL” value ([1]; UT-1 800 mg once daily) was 1.38% and 0% (4×) and the “Percentage of time (using CGM) blood glucose level is between 54 and 70 mg/dL” value ([1]; UT-1 800 mg once daily) was 3.27% and 0% (2×) and 0.17% and 0.69%. The “Percentage of time … in range of 70-180 mg/dL” value ([1]; UT-1 1200 mg once daily for 7 days with CSII insulin) was 52.9% and 48.8% and 80.9% and 69.6% and 59.3%, the “Percentage of time (using CGM) blood glucose level is above 180 mg/dL” value ([1]; UT-1 1200 mg once daily) was 42.24% and 50.68% and 18.79% and 24.62% and 30.09% and the “Percentage of time (using CGM) blood glucose level is below 54 mg/dL” value ([1]; UT-1 1200 mg once daily) was 0% (4×) and 3.84%. For the same molecule, the “Percentage of time (using CGM) blood glucose level is between 54 and 70 mg/dL” value ([1]; UT-1 1200 mg once daily) was 0.17% (2×) and 0.86% and 1.28% and 5.84%, the “glycemic control and insulin dose (trend)” value ([1]; dose escalation 400, 800, 1200 mg once daily) was “trends toward improved glycemic control while reducing insulin dose” and the “mean value of bolus insulin dose per day” value ([2]; 400 mg dose) was 25 mean U/day. The “mean value of bolus insulin dose per day” value ([2]; 800 mg dose) was 20 mean U/day, the “Mean units of basal insulin units administered per day” value ([2]; UT-1 400 mg once daily) was 23.9 mean U/day and 15.5 mean U/day and 29.3 mean U/day and 22.6 mean U/day and the “Mean units of bolus insulin units administered per day” value ([2]; UT-1 400 mg once daily) was 22.6 mean U/day and 29.9 mean U/day and 25.5 mean U/day and 23.3 mean U/day. For the same molecule, the “Mean units of basal insulin units administered per day” value ([2]; UT-1 800 mg once daily) was 22.6 mean U/day and 15.3 mean U/day and 19.6 mean U/day and 29.8 mean U/day and 22.2 mean U/day, the “Mean units of bolus insulin units administered per day” value ([2]; UT-1 800 mg once daily) was 17.6 mean U/day and 23.4 mean U/day and 22.5 mean U/day and 22 mean U/day and 15.8 mean U/day and the “Mean units of basal insulin units administered per day” value ([2]; UT-1 1200 mg once daily) was 22.9 mean U/day and 13.9 mean U/day and 21.8 mean U/day and 30.5 mean U/day and 19.1 mean U/day. For the same molecule, the “Mean units of bolus insulin units administered per day” value ([2]; UT-1 1200 mg once daily) was 16.2 mean U/day and 23.8 mean U/day and 20.9 mean U/day and 28 mean U/day and 25.2 mean U/day, the “ratio of mean carbohydrate intake per day to mean bolus insulin dose per day” value ([2]; from baseline to 400 mg dose, and from 400 mg dose to 800 mg dose) was “increase” and the “effect on liver function or plasma lipids” value [3] was “No detrimental effect”. The “concentrations of UT-1 (pharmacokinetic data)” value [4] was “lower in 3 out of 5 subjects”, the “mean difference in HbA1c in the UT-1 group relative to the placebo group” value (adult patients with T1DM [5]; 800 mg once daily, 12 weeks, p=0.03) was 0.7% and the “ending HbA1c” value (adult patients with T1DM [5]; 800 mg once daily, at 12 weeks, n=8) was 6.7-6.8%. The “mean reduction in HbA1c” value (adult patients with T1DM [5]; 800 mg once daily, at 12 weeks, n=8, baseline mean HbA1c 7.3%, statistically significant) was 0.6%, the “insulin usage (trend)” value (adult patients with T1DM [5]; 800 mg once daily, up to 12 weeks) was “trends toward decreased insulin usage” and the “patients with abnormal levels of metabolic ketones observed in plasma or urine” value (adult patients with T1DM [5]; 800 mg once daily, placebo 63%) was 13%. The “proportion of treatment responders” value (adult patients with T1DM [5]; responder: decrease in HbA1c at Week 12, no abnormal lactate or metabolic ketones, no increased time in Level 2 hypoglycemia, placebo 9%, p=0.006) was 75%, the tolerability (adult patients with T1DM [6]; similar incidences of treatment-emergent adverse events overall and by system organ class) was “well tolerated” and the “diabetic ketoacidosis or severe hypoglycemia reports” value (adult patients with T1DM [6]; whole study) was “no report of diabetic ketoacidosis or severe hypoglycemia”. The serious adverse events (adult patients with T1DM [6]; whole study) was “no serious adverse event”.
